Laboratory results taken from US9006487B2, “Amine-containing lipids and uses thereof” (Massachusetts Institute of Technology, priority 2005, dated 2015).
Several values for one entry are separate records, joined by “and”; a condition that tells them apart may be missing. Equal values may be shown once.

Tested on: cos-7 cells
Assay: DNA transfection: luciferase expression relative to Lipofectamine 2000
Type: cell-based
Conditions: 300 ng Luciferase DNA per well, luciferase assay after 48 hours
Procedure: 14,000 cos-7 cells (ATCC, Manassas, Va.) were seeded into each well of a solid white or clear 96 well plate (Corning-Costar, Kennebunk, Me.) and allowed to attached overnight in growth medium, composed of: 500 ml phenol red minus DMEM, 50 ml heat inactivated FBS, 5 ml penicillin/streptomycin (Invitrogen, Carlsbad, Calif.).
A small liquot of lipid was tranferred to an Eppendorf tube. Based on the mass of the lipid in the tube, sterile 25 mM sodium acetate buffer was added to each tube to yield a concentration of 60 mg/ml. The resulting mixture was vortexed for approximately 20 minutes until the lipid was fully dissolved. DNA was prepared based on 300 ng DNA per well of a 96-well plate. 291 μg of Lc DNA was dissolved in 9210 μl of 25 mM sodium acetate buffer. Aliquots of 30 μl of DNA solution were added to each well expect for the last column which was reserved for the Lipo2000 standard. For the last column of the plate, 61 μg of DNA was added to 1940 μl Optimem. 150 μl of media/Optimem was added to each well of plates. 50 μl of lipid solution was aliquoted into wells of robot plate. The following amounts were aliquoted to obtain the correct ratios of DNA to lipid:
In quadruplicate, 30 μl of lipid was aliquoted onto DNA in four rows for each ratio. For the Lipo2000 control (2.5 w/w ratio to DNA), 152.5 μg of Lipo sample was aliquoted into 1847.5 μl of Optimem. 30 μl of this solution was aliquoted onto DNA in the Optimem in the last columns of each plate. The plates were incubated for 15-20 minutes, and then 36.5 μl of lipid+DNA complexes was transferred into 150 μl of media/Optimem, then add to cells. The media was aspirated off the cells, and 105 μl of the lipid/DNA/media/Optimem solution was added to the cells. The luciferase assay was performed after 48 hours.
Luminescence was analyzed using bright-glo assay kits (Promega). Briefly, 100 μl of bright-glo solution was added to each well of the microtiter plate containing media and cells. Luminescence was measured using a Mithras Luminometer (Berthold, Oak Ridge, Tenn.). In some cases, a neutral density filter (Chroma, Brattleboro, Vt.) was used to prevent saturation of the luminometer. A standard curve for Luciferase was generated by titration of Luciferase enzyme (Promega) into growth media in white microtiter plates. Luciferase in ng per well are calculated for each of the lipids at 2.5 w/w, 5 w/w, 10 w/w, 15 w/w, 20 w/w, and 25 w/w lipid to DNA based on the standard curve.
The table below summarizes the data as a % of the luciferase activity obtained from the use of Lipofectamine 2000. The table indicates the best lipids for transfection.

Row | Structure (SMILES) | Luciferase expression as a percentage of that achieved using Lipofectamine 2000 (lipid/DNA 2.5 w/w) | Luciferase expression as a percentage of that achieved using Lipofectamine 2000 (lipid/DNA 5 w/w) | Luciferase expression as a percentage of that achieved using Lipofectamine 2000 (lipid/DNA 10 w/w) | Luciferase expression as a percentage of that achieved using Lipofectamine 2000 (lipid/DNA 15 w/w) | Luciferase expression as a percentage of that achieved using Lipofectamine 2000 (lipid/DNA 20 w/w) | Luciferase expression as a percentage of that achieved using Lipofectamine 2000 (lipid/DNA 25 w/w)
1 | CCCCCCCCCCOC(=O)CCN(CCCOC)CCC(=O)OCCCCCCCCCC [LB1] | 0.1% | 0.1% | 0.1% | 0.1% | 0.1% | 0.2%
2 | CCCCCCCCCCOC(=O)CCN(CCC(=O)OCCCCCCCCCC)CCC1OCCO1 [LB6] | 0.1% | 0.1% | 0.1% | 0.1% | 0.1% | 0.1%
3 | CCCCCCCCCCOC(=O)CCN(CCC(=O)OCCCCCCCCCC)CC1COC(C)(C)O1 (stereo not drawn) [LB7] | 0.1% | 0.1% | 0.1% | 0.1% | 0.1% | 0.2%
4 | CCCCCCCCCCOC(=O)CCN(CCOC)CCC(=O)OCCCCCCCCCC [LB10] | 0.1% | 0.1% | 0.1% | 0.1% | 0.1% | 0.1%
5 | CCCCCCCCCCOC(=O)CCN(CCOCC)CCC(=O)OCCCCCCCCCC [LB11] | 0.1% | 0.1% | 0.1% | 0.1% | 0.1% | 0.1%
6 | CCCCCCCCCCOC(=O)CCN(CCC(=O)OCCCCCCCCCC)CC(OC)OC [LB13] | 0.1% | 0.1% | 0.1% | 0.1% | 0.1% | 0.1%
7 | CCCCCCCCCCOC(=O)CCN(CCC(=O)OCCCCCCCCCC)CC1CCCO1 (stereo not drawn) [LB15] | 0.1% | 0.1% | 0.1% | 0.1% | 0.1% | 0.1%
8 | CCCCCCCCCCOC(=O)CCN(CCC(=O)OCCCCCCCCCC)CCc1ccc(OC)c(OC)c1 [LB17] | 0.1% | 0.1% | 0.1% | 0.1% | 0.1% | 0.1%
9 | CCCCCCCCCCOC(=O)CCN(CCCO)CCC(=O)OCCCCCCCCCC [LB20] | 0.1% | 0.1% | 0.4% | 0.2% | 0.3% | 0.7%
10 | CCCCCCCCCCOC(=O)CCN(CCC(=O)OCCCCCCCCCC)C[C@@H](C)O [LB21] | 0.7% | 0.8% | 0.7% | 0.7% | 0.7% | 0.8%
11 | CCCCCCCCCCOC(=O)CCN(CCC(=O)OCCCCCCCCCC)C[C@H](C)O [LB22] | 0.3% | 0.3% | 0.4% | 0.4% | 0.4% | 0.4%
12 | CCCCCCCCCCOC(=O)CCN(CCC(=O)OCCCCCCCCCC)CC(O)CO (stereo not drawn) [LB24] | 0.1% | 0.2% | 0.4% | 0.1% | 0.1% | 0.1%
13 | CCCCCCCCCCOC(=O)CCN(CCC(=O)OCCCCCCCCCC)C(CO)CO [LB25] | 0.8% | 2.4% | 2.6% | 3.3% | 2.3% | 1.8%
14 | CCCCCCCCCCOC(=O)CCN(CCC(=O)OCCCCCCCCCC)C(C)(CO)CO [LB26] | 0.1% | 0.1% | 0.1% | 0.1% | 0.1% | 0.1%
15 | CCCCCCCCCCOC(=O)CCN(CCCCO)CCC(=O)OCCCCCCCCCC [LB28] | 0.1% | 0.1% | 0.1% | 0.1% | 0.1% | 0.1%
16 | CCCCCCCCCCOC(=O)CCN(CCOCCO)CCC(=O)OCCCCCCCCCC [LB31] | 1.2% and 0.1% | 0.8% and 0.1% | 8.3% and 0.1% | 1.9% and 0.1% | 1.3% and 0.1% | 4.2% and 0.1%
17 | CCCCCCCCCCOC(=O)CCN(CCCCCO)CCC(=O)OCCCCCCCCCC [LB32] | 0.1% | 0.1% | 0.1% | 0.1% | 0.1% | 0.1%
18 | CCCCCCCCCCOC(=O)CCN(CCC(=O)OCCCCCCCCCC)CC(C)(C)CO [LB33] | 0.1% | 0.1% | 0.1% | 0.1% | 0.1% | 0.1%
